Measurements from patent publication US6835842B2, “3-nitroisoxazoles and their use in the protection of materials” (Bayer Aktiengesellschaft, priority 2000, dated 2004).
In brackets after ≈: the same amount, converted by molar mass.

Columns and labels:
Type in all cases: cell-based
[1] = tested on: Bacillus subtilis; assay: Use Example A: minimum inhibitory concentration against bacteria on Landy agar; conditions: 3 days at 28° C., 60-70% relative atmospheric humidity
Method: (§1) The MIC is determined after 3 days of storage at 28° C. and 60-70% relative atmospheric humidity.

[2] = tested on: Pseudomonas aeroginosa; assay: as above; conditions: 3 days at 28° C., 60-70% relative atmospheric humidity
Method: as §1

[3] = tested on: Aspergillus niger; assay: Use Example B: minimum inhibitory concentration against fungi on malt extract agar; conditions: 2 weeks at 28° C., 60-70% relative atmospheric humidity
Method: (§2) The MIC is determined after 2 weeks of storage at 28° C. and 60-70% relative atmospheric humidity.

[4] = tested on: Chaetomium globusum; assay: as above; conditions: 2 weeks at 28° C., 60-70% relative atmospheric humidity
Method: as §2

[5] = tested on: Penicillium brevicaule; assay: as above; conditions: 2 weeks at 28° C., 60-70% relative atmospheric humidity
Method: as §2

| MIC ([1]; Bacillus subtilis, 72 h) | MIC ([2]; Pseudomonas, 72 h) | MIC ([3]; Aspergillus niger, 336 h) | MIC ([4]; Chaetomium, 336 h) | MIC ([5]; Penicillium, 336 h) | SMILES | Minimum inhibitory concentration Bacillus subtilis [1] | Minimum inhibitory concentration Pseudomonas aeroginosa [2] | Minimum inhibitory concentration Aspergillus niger [3] | Minimum inhibitory concentration Chaetomium globusum [4] | Minimum inhibitory concentration Penicillium brevicaule [5] |
| --- | --- | --- | --- | --- | --- | --- | --- | --- | --- | --- |
| < 40 µg/mL | 100 µg/mL (≈ 877 µM) | 100 µg/mL (≈ 877 µM) | 200 µg/mL (≈ 1750 µM) | 100 µg/mL (≈ 877 µM) | O=[N+]([O-])c1ccon1 [Example 1, 3-Nitroisoxazole] | – | – | – | – | – |
| – | – | – | – | – | CCOc1ccc(-c2cc([N+](=O)[O-])no2)cc1Cl [Example 5] | <40 ppm | >400 ppm | 400 ppm | 100 ppm | 200 ppm |
| – | – | – | – | – | O=[N+]([O-])c1cc(-c2ccccc2)on1 [Example 2] | <40 ppm | >400 ppm | 400 ppm | 200 ppm | 200 ppm |
| – | – | – | – | – | CCCCc1cc([N+](=O)[O-])no1 [Example 4] | <40 ppm | 200 ppm | >400 ppm | 400 ppm | 400 ppm |
| – | – | – | – | – | Cc1cc([N+](=O)[O-])no1 [Example 3] | <40 ppm | 200 ppm | 200 ppm | 200 ppm | 200 ppm |
